Test results taken from US20090081279A1, “Skin Dressings” (priority 2005, published 2009).

Experiments:
moist skin = assay: Skin reddening (dermal vasodilation) after applying dried PVA layer with pre-generated GSNO onto moist skin; assay type: in vivo
Text: GSNO can be released from the layer simply by applying the layer onto a moist surface (e.g. wound bed). Once released, GSNO undergoes a slow decomposition to generate nitric oxide. The release of GSNO from the layer is relatively rapid.

[1] = Stability of GSNO in dried PVA layer; assay type: physicochemical; details: in the dried layer of PVA, especially if stored in a moisture-free atmosphere
Experimental: In one preferred embodiment of this type, the dressing comprises a layer of dried PVA containing pre-generated S-nitrosothiol. The layer is formed from PVA, a source of nitrite (preferably potassium nitrite) and a thiol (preferably L-glutathione). In a typical example of this embodiment both of these additives are added to the PVA solution prior to the drying. S-nitrosothiol (GSNO in the preferred case) is generated within the layer during the drying step. Nitrosothiols are known to be rather unstable in aqueous solutions. Nevertheless, GSNO was found very stable in the dried layer of PVA, especially if stored in a moisture-free atmosphere.

[2] = Effect of pH on production/decomposition of GSNO in aqueous solution of potassium nitrite and L-glutathione; assay type: physicochemical
Experimental: The following reagents were prepared: • Reagent 1: Na-phosphate buffer (pH 7.4, 0.1 M) • Reagent 2: Griess reagent: 20 mg of N-(1-Naphthyl)ethylendiamine dihydrochloride (NADD)+500 mg of sulphanilamide dissolved in 2 mL of DMSO. (N.B. This solution is light sensitive and should be kept in the dark as much as possible) • Reagent 3: Mercuric chloride (10 mM) in DMSO (13.58 mg of HgCl2 in 5 mL of DMSO)
The six-step procedure set out below was then followed: • 1. Dispense 1.5 mL of Reagent 1 into a plastic cuvette • 2. Add 200 μL of the sample (i.e. sample in which GSNO concentration is to be determined) • 3. Add 1.17 mL of DI water • 4. Add 100 μL of Reagent 2 • 5. Add 30 μL of Reagent 3 and give the solution a good mix • 6. Read absorbance of the resulting mixture at 496 nm in 10 min.
The concentration of GSNO can be calculated from the absorbance reading using the molar absorption coefficient for GSNO=12,500 M^−1 cm^−1.
The rate of the GSNO production and subsequent decomposition in solutions containing potassium nitrite (5 mM) and L-glutathione (5 mM) was studied at pH 3 (citrate-phosphate buffer, 0.1 M), pH 5 (citrate-phosphate buffer, 0.1 M) and pH 7 (phosphate buffer, 0.1 M).

[3] = under normal conditions; cited from earlier work
[4] = under normal conditions; cited from earlier work; remark: listed apart in the source

Row | Stability of GSNO [1] | Initial production of GSNO ([2]; pH 5 compared with pH 3 (citrate-phosphate buffer, 0.1 M)) | Production of GSNO ([2]; pH 7 (phosphate buffer, 0.1 M), potassium nitrite 5 mM, L-glutathione 5 mM) | Structure (SMILES) | Reversibility of skin reddening (moist skin; after removal of the patch) | Time to reddening of the skin due to dermal vasodilation (moist skin; dried PVA layer with pre-generated GSNO applied onto moist skin) | Stability of GSNO produced ([2]; pH 5 compared with pH 3) | Time to total (100%) decomposition [3] | Maximum solubility in water [4]
1 | very stable | slower at pH 5 compared with pH 3 | No production | N[C@@H](CCC(=O)N[C@@H](CSN=O)C(=O)NCC(=O)O)C(=O)O [GSNO, S-nitrosoglutathione] | totally reversible | ≤ 1 min | slightly higher at pH 5 compared with that at pH 3 | hours/days | –
2 | – | – | – | [N]=O [NO, Nitric oxide] | – | – | – | – | approximately 1.7 mM
